Laboratory results as given in patent US20240245800A1, “HIGHLY SPECIFIC RABBIT SINGLE -DOMAIN ANTIBODIES FOR DRUG DELIVERY IN IMMUNOTHERAPY APPLICATIONS” (TECHNOPHAGE, INVESTIGAÇÃO E DESENVOLVIMENTO EM …, priority 2021, published 2024).

What was measured:
LN229 cell line = assay: BEB-glioblastoma (BEB-GBM) in vitro model: LN229 viability; type: cell-based; set-up: dose or concentration left out as unconfirmed; conditions: PAN free added to apex, 24 h
Description: FIG. 18. Activity of liposomal drug delivery in the BEB-Glioblastoma model, wherein an in vitro BEB-GBM model was developed to mimic the complexity of drug delivery to a brain tumour. This model combined a monolayer of bEnd.3, as the BBB barrier, and the LN229 cell line at the base as the glioblastoma tumour.
FIG. 18B. PAN encapsulated RG3 and FC5 functionalized liposomes were analysed in terms of BEB translocation and delivery of PAN to a glioblastoma cell line and compared with non-functionalized unloaded liposomes (Control). […] The cytotoxic effect of PAN in LN229 was determined by adding WST-1 reagent. The values were obtained from duplicates of two independent experiments ([…]).

Description for bEnd.3: The integrity of the bEnd.3 was measured by determining the translocation of the FD40 fluorescent probe while LN229 viability was determined using WST-1 reagent and OD450 nm measurement following 24 h incubation, and
The in vitro BEB models were optimized based on previous studies [45]. Briefly, bEnd.3 cells were cultured in DMEM, supplemented with 10% FBS and 1% penicillin/streptomycin (Lonza, Basel, Switzerland) antibiotic solution. Cells were cultured in a humidified atmosphere of 5% CO2 at 37° C. and the medium changed every other day. […] Samples were recovered from the apex and base and fluorescence intensity was measured in a microtiter plate reader (BMG Labtech, Fluostar OPTIMA, Ortenberg, Germany) with an excitation of 485 nm and a maximum emission at 520 nm.
To study the BEB translocation efficiency of the Lip-PAN-RG3 and Lip-PAN-FC5 liposomes and subsequent drug delivery and cytotoxic activity of PAN in a glioblastoma cell line, a dual in vitro non-contact co-culture model was established with bEnd.3 and LN229 cells. […] Following the 24 h treatment, WST-1 was added to the plate, and O.D.450 nm was measured following 24 h incubation. Each data point was determined using three replicate wells and two independent experiments were carried out in different days. […] In parallel, the integrity of the BEB model was measured as described previously.

## Cc1[nH]c2ccccc2c1CCNCc1ccc(/C=C/C(=O)NO)cc1 [PAN, panobinostat]
bEnd.3
  effect on BEB integrity in BEB-GBM model: no significant effect
LN229 cell line
  effect on LN229 viability in BEB-GBM model: no significant effect
